According to patent publication US12065447B2, “Heterocyclic amide for inhibiting RIP1 kinase and uses thereof” (SHANGHAI INSTITUTE OF MATERIA MEDICA, CHINESE ACADEMY OF …, priority 2018, dated 2024):

Legend:
[1] = tested on: TNFα induced systemic inflammatory response syndrome (SIRS); experiment: TNFα induced C57BL/6 mouse systemic inflammatory response syndrome (SIRS) model (hypothermic shock); assay type: in vivo; conditions: mTNFα 5 μg/mouse tail vein, drug by gavage 15 min before modeling
Method: TNFα Induced C57BL/6 Mouse Systemic Inflammatory Response Syndrome (SIRS) Model
Source, stirp and strain: C57BL/6 pure mouse, female, 18-20 g, purchased from Shanghai Lingchang Biotechnology Co., Ltd., license No. SCXK (Shanghai) 2013-0018. The animals were bred in the SPF animal room of Building No. 2 of the Shanghai institute of Materia Medica, and the experimental animal use license number is SYXK (Shanghai) 2013-0049. The animals were bred for at least one week before use at 22±1° C. with a humidity of 55±5% and 12 h light and dark cycle. Both feed and water are freely ingested by the animals after disinfection. All experiments were carried out in strict accordance with the relevant regulations on experimental animals.
2. Test Reagents and Materials: • 1) Recombinant Mouse mTNFα was purchased from Shanghai JIN′AN Biological Company. • 2) Experimental materials: 1.5 mL centrifuge tubes were purchased from Axygen Company, 15 mL and 50 mL centrifuge tubes were purchased from Corning Company; commonly used surgical instruments (ophthalmic scissors, large tweezers, small tweezers, tissue scissors) and 1 mL, 2 mL, and 10 mL disposable plastic dispensers were purchased from Sinopharm Chemical Reagent Co., Ltd.; pipettes of various specifications were purchased from Eppendorf Company; tips of various specifications were purchased from Axygen and Sartoruris Company. • 3) Experimental equipments: the syringe adopts omnican insulin syringes, a disposable syringe adopts sterile insulin syringe with a product number of 9161635, and an outer diameter and length of the needle tube of 0.30*8 mm; the mouse tail vein syringe is model YLS-Q9G purchased from Jinan Yyan Technology Development Co., Ltd.; Laboratory animal rectal temperature measuring instrument was model ALC-ET06 purchased from Shanghai Alcott Biotechnology Co., Ltd.
3. Reagents and Compound Preparation Methods: • 1) Recombinant Mouse mTNFα: mTNFα lyophilized powder was dissolved in PBS to prepare a stock solution of 200 μg/mL, and stored in a refrigerator at −20° C. after sub-packaging. The stock solution was put in a refrigerator at 4° C. overnight to reach dissolution equilibrium when in use. […] The drug concentration was determined comprehensively according to the results of in vitro experiments and the pharmacokinetic properties.
4. […] Therefore, the model with tail vein injection of TNFα was selected as the classic model for an animal level screen of RIP1 inhibitor. • 2) Experimental process: • a) The experimental animals were randomly grouped according to their body weight one day in advance, and there are 8 animals in each group. • b) On the day of the experiment, mTNFα and sterile PBS were diluted according to the above method, sucked into an insulin syringe at 125 μl/piece, that is, 5 μg/mice. • c) The drug was administered 15 min before modeling by gavage at 0.2 mL/mouse. • d) 15 min after administration, the modeling was started by injection of PBS or mTNFα into the tail vein, the injection was conducted according to the above dose. • e) After modeling, the rectal temperature was measured every 1 h and the survival rate was measured.
5. Testing Indicators: • 1) Animal body temperature: The rectal temperature was measured every 1 h after modeling. […]

[2] = Study on oral pharmacokinetics in rats; assay type: in vivo; conditions: rat, plasma, male SD rats, 3 mg/kg by gavage, average; for AUC(0-inf): extrapolated to infinity, read-out: AUCINF_obs; for MRT inf: read-out: Average residence time MRTINF_obs; for half-life: read-out: Half life T1/2 (converted); for Cmax: read-out: Peak plasma concentration Cmax
Method: Study on Oral Pharmacokinetics in Rats • 1. […] The pharmacokinetic behaviors of the compounds of the present invention in rats were studied, and the pharmacokinetic properties of the compounds were evaluated. • 2. The test animals are healthy adult male SD rats, 3 in each group. • 3. […] Liquid chromatography tandem mass spectrometry (LC-MS/MS) was used to determine the plasma concentration of test compounds in rat after intragastrical administration of different compounds.

| SMILES | Survival rate [1] [%] | AUC(0-t) [2] [ng·h/mL] | AUC(0-inf) [2] [ng·h/mL] | MRT inf [2] [h] | half-life [2] [h] | Cmax [2] [ng/mL] |
| --- | --- | --- | --- | --- | --- | --- |
| CN1C(=O)[C@@H](NC(=O)c2n[nH]c(Cc3ccccc3)n2)COc2ccc(C#CC3CC3)cc21 [ZB-R-55] | 100 | 25700 | 26100 | 7.23 | 3.71 | 2900 |
| CN1C(=O)[C@@H](NC(=O)c2n[nH]c(Cc3ccccc3)n2)COc2ccc(C#Cc3cnn(C)c3)cc21 [ZB-R-53] | 100 | 4500 | 4650 | 2.41 | 1.54 | 1760 |
| CN1C(=O)[C@@H](NC(=O)c2n[nH]c(Cc3ccccc3)n2)COc2ccc(C#Cc3ccncc3)cc21 [ZB-R-52] | – | 1560 | 1560 | 1.61 | 0.81 | 755 |
| CN1C(=O)[C@@H](NC(=O)c2n[nH]c(Cc3ccccc3)n2)COc2ccc(C#CC3CCOCC3)cc21 [ZB-R-54] | 100 | 1240 | 1250 | 2 | 1.14 | 667 |
| CN1C(=O)[C@@H](NC(=O)c2n[nH]c(Cc3ccccc3)n2)COc2ccc(C#Cc3ccccn3)cc21 [ZB-R-50] | 100 | 3110 | 3120 | 2.2 | 1.56 | 1450 |
| CN1C(=O)[C@@H](NC(=O)c2n[nH]c(Cc3ccccc3)n2)COc2ccc(C#Cc3cccnc3)cc21 [ZB-R-51] | – | 4210 | 4290 | 2.8 | 1.79 | 1360 |
| CN1C(=O)[C@@H](NC(=O)c2n[nH]c(Cc3ccccc3)n2)COc2ccccc21 [GSK2982772, reference compound] | 100 | – | – | – | – | – |
| Cc1c(C#Cc2cnn(C)c2)sc2c1SC[C@H](NC(=O)c1nnc(Cc3ccccc3)[nH]1)C(=O)N2C [ZB-R-39] | – | 1680 | 1700 | 4.07 | 3.46 | 525 |
